In patent US20240010684A1, “MASP INHIBITORY COMPOUNDS AND USES THEREOF” (BAYER AKTIENGESELLSCHAFT, priority 2020, published 2024):
Where a SMILES comes first, the peptide text is derived from it. Bridges are numbered along the chain shown (N, C = ends). [ ]: non-standard residue; d: D form. ξ: configuration not given here. Oic = O=C(O)[C@@H]1C[C@@H]2CCCC[C@@H]2N1; tBuAla = CC(C)(C)C[C@H](N)C(=O)O; Pen = CC(C)(S)[C@H](N)C(=O)O; ξIle = CC[C@H](C)C(N)C(=O)O; NMeC = CN[C@@H](CS)C(=O)O; Orn = NCCC[C@H](N)C(=O)O; Dap = NC[C@H](N)C(=O)O; Ahx = NCCCCCC(=O)O

What was measured:
[1] = target: human MASP1 (Homo sapiens (Human), UniProt P48740); experiment: Biochemical human MASP1 assay (FRET substrate); conditions: Average IC50; recombinant human MASP1; read-out: human MASP1 IC50
Sequence of human MASP1 (P48740 other isoform, or with tags, fused parts or gaps): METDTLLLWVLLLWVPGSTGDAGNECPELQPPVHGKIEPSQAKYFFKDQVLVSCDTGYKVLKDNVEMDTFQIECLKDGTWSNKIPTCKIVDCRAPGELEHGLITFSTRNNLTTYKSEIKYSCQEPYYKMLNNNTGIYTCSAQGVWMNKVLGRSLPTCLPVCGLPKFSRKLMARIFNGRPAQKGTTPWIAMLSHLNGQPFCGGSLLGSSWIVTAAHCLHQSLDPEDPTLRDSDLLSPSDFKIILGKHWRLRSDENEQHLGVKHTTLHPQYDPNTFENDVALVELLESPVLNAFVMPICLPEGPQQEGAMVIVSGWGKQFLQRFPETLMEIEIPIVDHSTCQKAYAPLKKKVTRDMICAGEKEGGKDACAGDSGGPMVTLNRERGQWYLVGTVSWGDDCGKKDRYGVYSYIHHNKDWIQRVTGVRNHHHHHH
Outline: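 Recombinant human MASP1 (aa 297-699, C-terminal His tag, HEK293-expressed, Ni-NTA purified) diluted to 20 nM in 50 mM HEPES pH 8,0, 100 mM NaCl, 0,01% CHAPS, 0.5 mM glutathione, preincubated with compound in DMSO; reaction started with 20 μM ABZ/Dnp FRET substrate solution. Fluorescence (ex 320/em 420 nm) after 60-120 min at 32 C; IC50 from % inhibition.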

[2] = target: human MASP2 (Homo sapiens (Human), UniProt O00187); experiment: Biochemical human MASP2 assay (FRET substrate); conditions: Average IC50; recombinant human MASP2; read-out: human MASP2 IC50
Sequence of human MASP2 (O00187 other isoform, or with tags, fused parts or gaps): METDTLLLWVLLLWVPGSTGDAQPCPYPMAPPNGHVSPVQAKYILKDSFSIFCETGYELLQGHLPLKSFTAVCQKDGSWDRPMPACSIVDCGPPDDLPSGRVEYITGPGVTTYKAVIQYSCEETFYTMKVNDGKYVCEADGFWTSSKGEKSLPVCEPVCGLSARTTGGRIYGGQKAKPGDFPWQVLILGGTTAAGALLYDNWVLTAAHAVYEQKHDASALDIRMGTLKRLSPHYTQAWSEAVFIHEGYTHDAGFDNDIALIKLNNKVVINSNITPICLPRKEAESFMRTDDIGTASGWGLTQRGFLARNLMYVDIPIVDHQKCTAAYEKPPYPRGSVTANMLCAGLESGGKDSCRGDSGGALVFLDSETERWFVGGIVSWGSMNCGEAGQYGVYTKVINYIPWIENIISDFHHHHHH
Outline: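 Mature recombinant human MASP2, expressed in HEK293 and purified by Ni-NTA affinity, was reacted with a DABCYL FRET peptide substrate (added as a 60 μM solution) for 60-120 min at 32 C. Fluorescence increase was read at ex 340/em 490 nm; IC50 was derived from % inhibition versus compound concentration.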

[3] = tested on: Human C3-DEPOSITION SERUM; experiment: C3 deposition assay, human serum on mannan-coated plates; type: biochemical; conditions: Average IC50, read-out: Human C3-DEPOSITION SERUM IC50
Method: 3. C3 Deposition Assay (Human, Rat, Mouse, Dog, Pig))
The C3 deposition assay was conducted essentially as described (reference). Multiwell plates (Greiner-Nunc 384 Maxi Sorp #464718) were coated over night with Mannan from Saccharomyces cerevisiae (Sigma M7504, 10 μg/mL in 0.05 M carbonate-bicarbonate buffer, pH 9.6) at 4° C. Wells were washed three times with TBS and subsequently incubated for 2 hours with 50 μL of 1% bovine serum albumin (BSA) in Tris-buffered saline (TBS) at 37° C. in order to block non-specific binding. After this step and each of the following incubation steps wells were washed three times with C3 wash buffer (TBS; 0.05% Tween 20; 5 mM CaCl2). […] When appropriately developed the color reaction was stopped by addition of 25 μL of stop solution (Sigma S5814) and quantified on a photometer by measuring absorption at a wavelength of 450 nm. Antibodies were diluted in C3 wash buffer supplemented with 0.5% BSA.

SMILES	IC50 [1] [nM]	IC50 [2] [nM]	IC50 [3] [nM]
CC[C@H](C)[C@@H]1NC(=O)CNC(=O)[C@H](CN)NC(=O)[C@H](CN)NC(=O)[C@H](CC(=O)O)NC(=O)[C@@H]2CCCN2C(=O)[C@H]([C@@H](C)CC)NC(=O)[C@@H]2CSSC[C@H](NC1=O)C(=O)N[C@@H](CO)C(=O)N[C@@H](CCCNC(=N)N)C(=O)N[C@@H](CO)C(=O)N[C@@H](CC(C)C)C(=O)N1CCC[C@H]1C(=O)N1CCC[C@H]1C(=O)N[C@@H]([C@@H](C)CC)C(=O)N2 [Example 23] (cyclo(CIPD[Dap][Dap]GICSRSLPPI); disulfide 1-9)	180	20	121
CC[C@H](C)[C@@H]1NC(=O)[C@H](C)NC(=O)CCCCCNC(=O)[C@H](CC(=O)O)NC(=O)[C@@H]2CCCN2C(=O)[C@H]([C@@H](C)CC)NC(=O)[C@@H]2CSSC[C@H](NC1=O)C(=O)N[C@@H](CO)C(=O)N[C@@H](CCCNC(=N)N)C(=O)N[C@@H](CO)C(=O)N[C@@H](CC(C)(C)C)C(=O)N1CCC[C@H]1C(=O)N1CCC[C@H]1C(=O)N[C@@H]([C@@H](C)CC)C(=O)N2C [Example 32] (cyclo(AICSRS[tBuAla]PPI[NMeC]IPD[Ahx]); disulfide 3-11)	22	63.5	121
CC[C@H](C)[C@@H]1NC(=O)[C@H](C)NC(=O)CNC(=O)C[C@@H](C(N)=O)NC(=O)[C@@H]2CCCN2C(=O)[C@H]([C@@H](C)CC)NC(=O)[C@@H]2CSSC[C@H](NC1=O)C(=O)N[C@@H](CO)C(=O)N[C@@H](CCCNC(=N)N)C(=O)N[C@@H](CO)C(=O)N[C@@H](CC(C)C)C(=O)N1CCC[C@H]1C(=O)N1CCC[C@H]1C(=O)N[C@@H]([C@@H](C)CC)C(=O)N2 [Example 37] (GAICSRSLPPICIPD-NH2; disulfide 4-12; lactam N-15)	16	140	59.4
CC[C@H](C)[C@@H]1NC(=O)[C@H](C)NC(=O)CCCCCNC(=O)[C@H](CC(=O)O)NC(=O)[C@@H]2CCCN2C(=O)[C@H]([C@@H](C)CC)NC(=O)[C@@H]2CSSC[C@H](NC1=O)C(=O)N[C@@H](CO)C(=O)N[C@@H](CCCNC(=N)N)C(=O)N[C@@H](CO)C(=O)N[C@@H](CC(C)(C)C)C(=O)N1CCC[C@H]1C(=O)N1CCC[C@H]1C(=O)N[C@@H]([C@@H](C)CC)C(=O)N2 [Example 46] (cyclo(AICSRS[tBuAla]PPICIPD[Ahx]); disulfide 3-11)	56	89	228
CC[C@H](C)[C@@H]1NC(=O)CNC(=O)[C@@H](N)CCC(=O)NCCCC[C@@H](C(N)=O)NC(=O)[C@H](CC(=O)O)NC(=O)[C@@H]2CCCN2C(=O)[C@H]([C@@H](C)CC)NC(=O)[C@H]2NC(=O)[C@H]([C@@H](C)CC)NC(=O)[C@@H]3C[C@@H]4CCCC[C@@H]4N3C(=O)[C@@H]3CCCN3C(=O)[C@H](CC(C)C)NC(=O)[C@H](CO)NC(=O)[C@H](CCCNC(=N)N)NC(=O)[C@H](CO)NC(=O)[C@H](CSSC2(C)C)NC1=O [Example 91] (H-EGICSRSLP[Oic]I[Pen]IPDK-NH2; lactam 1-16; disulfide 4-12)	29	71	
CC[C@H](C)[C@@H]1NC(=O)CCCCCNC(=O)[C@H]([C@@H](C)CC)NC(=O)[C@@H]2CSSC[C@H](NC1=O)C(=O)N[C@@H](CO)C(=O)N[C@@H](CCCNC(=N)N)C(=O)N[C@@H](CO)C(=O)N[C@@H](CC(C)C)C(=O)N1CCC[C@H]1C(=O)N1[C@@H](C[C@@H]3CCCC[C@@H]31)C(=O)N[C@@H]([C@@H](C)CC)C(=O)N2 [Example 95, N-{3-[(6S,9S,12S,15S,18R,21S,31S,34R,37S,39aS,40aS,44aS,46aS)-21,31,37-tri[(2S)-butan-2-yl]-9,15-bis(hydroxymethyl)-6-(2-methylpropyl)-5,8,11,14,17,20,23,30,33,36,39,46-dodecaoxohexatetracontahydro-1H,5H-18,34-(methanodithiomethano)pyrrolo[2′,1′:15,16][1,4,7,10,13,16,19,22,25,28,31,34]dodecaazacyclotetracontino[13,12-a]indol-12-yl]propyl}guanidine] (cyclo([Ahx]ICSRSLP[Oic]ICI); disulfide 3-11)	100	110	

Molecules with a lower IC50 [1], results first:

IC50 [1] [nM]	IC50 [2] [nM]	IC50 [3] [nM]	SMILES
8.6	68	84.6	CC[C@H](C)[C@@H]1NC(=O)CNC(=O)CNC(=O)[C@H](C)NC(=O)[C@H](CC(=O)O)NC(=O)[C@@H]2CCCN2C(=O)[C@H]([C@@H](C)CC)NC(=O)[C@H]2NC(=O)[C@H]([C@@H](C)CC)NC(=O)[C@@H]3CCCN3C(=O)[C@@H]3CCCN3C(=O)[C@H](CC(C)(C)C)NC(=O)[C@H](CO)NC(=O)[C@H](CCCNC(=N)N)NC(=O)[C@H](CO)NC(=O)[C@H](CSSC2(C)C)NC1=O [Example 29] (cyclo(AGGICSRS[tBuAla]PPI[Pen]IPD); disulfide 5-13)
8.7	110	8.68	CC[C@H](C)[C@@H]1NC(=O)CCCNC(=O)[C@H](CC(=O)O)NC(=O)[C@@H]2CCCN2C(=O)[C@H]([C@@H](C)CC)NC(=O)[C@@H]2CSSC[C@H](NC1=O)C(=O)N[C@@H](CO)C(=O)N[C@@H](CCCNC(=N)N)C(=O)N[C@@H](CO)C(=O)N[C@@H](CC(C)(C)C)C(=O)N1CCC[C@H]1C(=O)N1CCC[C@H]1C(=O)N[C@@H]([C@@H](C)CC)C(=O)N2C [Example 36]
6.7	120	28.2	CC[C@H](C)[C@@H]1NC(=O)[C@H](C)NC(=O)CCCCCNC(=O)C[C@@H](C(N)=O)NC(=O)[C@@H]2CCCN2C(=O)[C@H]([C@@H](C)CC)NC(=O)[C@H]2NC(=O)[C@H]([C@@H](C)CC)NC(=O)[C@@H]3C[C@@H]4CCCC[C@@H]4N3C(=O)[C@H]3CCCN3C(=O)[C@H](CC(C)C)NC(=O)[C@H](CO)NC(=O)[C@H](CCCNC(=N)N)NC(=O)[C@H](CO)NC(=O)[C@H](CSSC2(C)C)NC1=O [Example 43]
4.7	230	23.7	CC[C@H](C)C1NC(=O)[C@@H]2CSSC[C@H](NC(=O)[C@H]([C@@H](C)CC)NC(=O)[C@H](C)NC(=O)[C@@H](N)CCCNC(=O)C[C@@H](C(N)=O)NC(=O)[C@@H]3CCCN3C1=O)C(=O)N[C@@H](CO)C(=O)N[C@@H](CCCNC(=N)N)C(=O)N[C@@H](CO)C(=O)N[C@@H](CC(C)(C)C)C(=O)N1CCC[C@H]1C(=O)N1CCC[C@H]1C(=O)N[C@@H]([C@@H](C)CC)C(=O)N2C (stereo partly drawn) [Example 44] (H-[Orn]AICSRS[tBuAla]PPI[NMeC][ξIle]PD-NH2; lactam 1-15; disulfide 4-12)
13	210	228	CC[C@H](C)[C@@H]1NC(=O)[C@H](C)NC(=O)[C@@H](N)CSSC[C@@H](C(N)=O)NC(=O)[C@H](CC(=O)O)NC(=O)[C@@H]2CCCN2C(=O)[C@H]([C@@H](C)CC)NC(=O)[C@H]2NC(=O)[C@H]([C@@H](C)CC)NC(=O)[C@@H]3CCCN3C(=O)[C@@H]3CCCN3C(=O)[C@H](CC(C)(C)C)NC(=O)[C@H](CO)NC(=O)[C@H](CCCNC(=N)N)NC(=O)[C@H](CO)NC(=O)[C@H](CSSC2(C)C)NC1=O [Example 50] (H-CAICSRS[tBuAla]PPI[Pen]IPDC-NH2; disulfide 1-16, 4-12)
6.3	17	28.2	CC[C@H](C)[C@@H]1NC(=O)CCCCCNC(=O)[C@@H]2CCCN2C(=O)[C@H]([C@@H](C)CC)NC(=O)[C@H]2NC(=O)[C@H]([C@@H](C)CC)NC(=O)[C@@H]3CCCN3C(=O)[C@@H]3CCCN3C(=O)[C@H](CC(C)(C)C)NC(=O)[C@H](CO)NC(=O)[C@H](CCCNC(=N)N)NC(=O)[C@H](CO)NC(=O)[C@H](CSSC2(C)C)NC1=O [Example 51] (cyclo([Ahx]ICSRS[tBuAla]PPI[Pen]IP); disulfide 3-11)
9.8	110		CC[C@H](C)[C@@H]1NC(=O)CNC(=O)[C@@H](N)CCC(=O)NCCCC[C@@H](C(N)=O)NC(=O)[C@@H]2CCCN2C(=O)[C@H]([C@@H](C)CC)NC(=O)[C@H]2NC(=O)[C@H]([C@@H](C)CC)NC(=O)[C@@H]3C[C@@H]4CCCC[C@@H]4N3C(=O)[C@@H]3CCCN3C(=O)[C@H](CC(C)C)NC(=O)[C@H](CO)NC(=O)[C@H](CCCNC(=N)N)NC(=O)[C@H](CO)NC(=O)[C@H](CSSC2(C)C)NC1=O [Example 90] (H-EGICSRSLP[Oic]I[Pen]IPK-NH2; lactam 1-15; disulfide 4-12)
